Laboratory results as given in ChEMBL document CHEMBL1139099, “Novel trifluoroacetophenone derivatives as malonyl-CoA decarboxylase inhibitors” (Bioorg Med Chem Lett, 2007).

Target: T1, Malonyl-CoA decarboxylase, mitochondrial (Homo sapiens, UniProt O95822)
T1 sequence (O95822 whole entry): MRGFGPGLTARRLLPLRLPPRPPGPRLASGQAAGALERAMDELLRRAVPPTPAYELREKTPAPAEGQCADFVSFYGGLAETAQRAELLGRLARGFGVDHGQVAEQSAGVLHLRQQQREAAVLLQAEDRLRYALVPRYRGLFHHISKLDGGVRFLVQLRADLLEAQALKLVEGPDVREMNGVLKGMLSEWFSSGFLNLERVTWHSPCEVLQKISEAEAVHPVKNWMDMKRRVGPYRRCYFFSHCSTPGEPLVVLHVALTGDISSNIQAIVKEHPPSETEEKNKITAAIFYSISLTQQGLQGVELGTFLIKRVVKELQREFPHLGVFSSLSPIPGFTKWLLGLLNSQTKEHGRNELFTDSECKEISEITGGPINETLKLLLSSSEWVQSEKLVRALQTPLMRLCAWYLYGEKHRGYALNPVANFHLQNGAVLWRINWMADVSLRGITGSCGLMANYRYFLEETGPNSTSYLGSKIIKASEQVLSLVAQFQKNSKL
Test: Inhibition of MBP fused human MCD

IC50: 2.3 µM
SMILES: O=C(NCC1CCCCC1)c1ccc(C(=O)C(F)(F)F)cc1
